The series is classed as in vivo, Sprague Dawley male rats. The note with it: rat, in vivo, ip. The protocol: The ability of a compound of the invention to treat anemia associated with post-ischemic acute renal failure was assayed using a procedure described by Vaziri et al. (1994, Am J Physiol 266(3 Pt 2):[…]-6.) Fifteen Sprague Dawley male rats (280-300 g) were obtained from Charles River Laboratories. On day 0, rats were treated by intraperitoneal injection with a single dose of saline (control; n=3) at 8 ml/kg, or cisplatin (CP; Bedford Laboratories, Bedford Ohio) at either 7 mg/kg (7 ml/kg; n=6) or 10 mg/kg (10 ml/kg; n=6). Blood samples (0.2 ml) were collected on days 5, 9, and 16 as follows. […] Blood samples were processed for hematocrit as described above to determine the degree of anemia produced in each animal. […] Blood samples (0.5 ml) were collected as described above immediately prior to treatment and 4 days after treatment initiation. Blood samples were analyzed for CBC and reticulocyte counts as described above. On day 9 after initiation of oral treatment, a blood sample (0.1 ml) was collected and processed for hematocrit as described above.

Read-outs that look alike come from different tables or passages of the source.

The results in this text go back to patent US20130203805A1, “Methods for treating anemia using inhibitors of hypoxia-inducible factor (HIF) hydroxylase” (FIBROGEN, INC., priority 2001, published 2013).

As for `N.N.[Cl][Pt][Cl]` [CP, cisplatin, reference compound], the “reduction of hematocrit relative to controls” value is on record as 14% (7 mg/kg) and 22% (10 mg/kg).
